In brackets after ≈: the same amount, converted by molar mass. Entries after “also recorded” stand apart in the source; their conditions may differ. Where two headings read alike, the source gives them in different places.
Tests used:
S. aureus tarO mutant = assay: Dye sensitivity test on agar plates; format: cell-based, Staphylococcus aureus; conditions: for selective suppression of growth of tarO mutant but not parental strain on dye agar: Newman ΔtarO vs Newman; for growth on agar with Congo Red: tarO mutant, 0.08% w/v Congo Red
Procedure: (§1) Congo Red sensitivity tests were conducted as previously described (Hubscher et al., FEMS Microbiol. Lett. 295:251-260, 2009), with minor modification. Briefly, 10-fold dilutions, starting at 10^6 colony forming units (CFU) in 5 μL, were spotted on brain heart infusion (BHI) agar or Luria-Bertani (LB) agar, supplemented with 0.08% (w/v) Congo Red where appropriate. The Congo Red agar plates were incubated at 37° C. or 30° C. for 24 hours. As a precaution to prevent possible inactivation of Congo Red by light, the plates were incubated in the dark. Sensitivity to Congo Red was determined by comparing colony density between parental and mutant strains on control and Congo Red plates. Sudan Red 7B (0.08% w/v), Calcofluor White (0.01% w/v), Direct Red (0.08% w/v), Mordant Black (0.08% w/v), or Acid Red (0.08% w/v) in BHI agar were tested similarly.

S. aureus Newman [1] = assay: MIC, CLSI broth microplate assay; format: cell-based, Staphylococcus aureus
Procedure: (§2) In vitro susceptibility tests (minimum inhibitory concentration [MIC]) were conducted using the Clinical and Laboratory Standards Institute (CLSI) broth microplate assay guidelines (Clinical and Laboratory Standards Institute, Performance Standards for Antimicrobial Susceptibility Testing; 16th Informational Supplement, CLSI M100-S16, Wayne, Pa., 2006). Because of temperature sensitivity, to determine susceptibility of RN4220 ΔltaS, bacteria were cultured at 30° C. for 20 h.

S. aureus RN4220 = assay: MIC, CLSI broth microplate assay; format: cell-based, Staphylococcus aureus
Procedure: as §2

[2] = tested on: S. aureus RN4220ΔltaS-ltaS; assay: MIC, CLSI broth microplate assay; format: cell-based, Staphylococcus aureus
Procedure: as §2

S. aureus RN4220ΔltaS = assay: MIC, CLSI broth microplate assay; format: cell-based, Staphylococcus aureus
Procedure: as §2

S. aureus RN4220ΔtarK = assay: MIC, CLSI broth microplate assay; format: cell-based, Staphylococcus aureus
Procedure: as §2

S. aureus NewmanΔtarO = assay: MIC, CLSI broth microplate assay; format: cell-based; conditions: Staphylococcus aureus
Procedure: as §2

S. aureus RN4220ΔtarA = assay: MIC, CLSI broth microplate assay; format: cell-based; conditions: Staphylococcus aureus
Procedure: as §2

S. aureus RN4220ΔtarO = assay: MIC, CLSI broth microplate assay; format: cell-based; conditions: Staphylococcus aureus
Procedure: as §2

S. aureus RN6390 = assay: MIC, CLSI broth microplate assay; format: cell-based; conditions: Staphylococcus aureus; strain RN6390
Procedure: as §2

S. aureus RN6390ΔtarO = assay: MIC, CLSI broth microplate assay; format: cell-based; conditions: Staphylococcus aureus
Procedure: as §2

[3] = tested on: S. aureus tarO and tarA mutants lacking WTA; assay: MIC, for mutants lacking WTA; format: cell-based, Staphylococcus aureus
Procedure: as §2
Minimum inhibitory concentrations (MICs) for Congo Red were determined by microdilution assay. Consistent with the results of agar plate tests, the parental strain RN4220, and isogenic tarK, and ltaS mutants, as well as an ltaS strain complemented on a multicopy plasmid, were all resistant to Congo Red at concentrations>1024 mg/L (Table 2).

S. aureus tarA mutant = assay: Congo Red sensitivity test on agar plates; format: cell-based, Staphylococcus aureus; conditions: 0.08% w/v Congo Red
Procedure: as §1

S. aureus tarK mutant = assay: Congo Red sensitivity test on agar plates; format: cell-based, Staphylococcus aureus; conditions: 0.08% w/v Congo Red
Procedure: as §1

S. aureus ltaS mutant = assay: Congo Red sensitivity test on agar plates; format: cell-based, Staphylococcus aureus; conditions: LB agar, 0.08% w/v Congo Red, 30° C. and 37° C.
Procedure: as §1
To determine whether loss of lipoteichoic acid (LTA) could also generate the Congo Red susceptible phenotype, an ltaS mutant of S. aureus was tested (Oku et al., J. Bacteriol. 191:141-151, 2009). The ltaS mutant is sensitive to heat and low osmolarity (Grundling et al., Proc. Natl. Acad. Sci. U.S.A. 104:8478-8483, 2007; Oku et al., J. Bacteriol. 191:141-151, 2009). Therefore, Congo Red was added at 0.08% w/v to Luria broth (LB) agar (having a higher NaCl concentration than BHI), and the strain was tested for Congo Red sensitivity at 30° C. […]

S. aureus Newman ΔtarO = assay: Kinetics of Congo Red inhibition, growth in TSB; format: cell-based, Staphylococcus aureus; conditions: Newman tarO, 10 mg/L Congo Red
Procedure: FIG. 5 is a graph showing the growth of S. aureus strain Newman (closed circles) and Newman ΔtarO (open circles) in tryptic soy broth (TSB) before and following the addition of 10 mg/L Congo Red (black arrow).
To assess kinetics of Congo Red inhibition, growth of S. aureus strain Newman and its tarO mutant were assessed in TSB containing 10 mg/L Congo Red. Newman tarO began to die 3 hours after addition of Congo Red (FIG. 5). To probe the mechanism of killing, Congo Red-inhibited cells were examined by transmission electron microscopy (TEM) (FIGS. 6A-6D). […] Since Congo red contains two sulfonic-acid groups, the MICs for sulfanilamide which is developed from prontocil were determined in the Newman and tarO mutant strains.

S. aureus Newman [4] = assay: Transmission electron microscopy after Congo Red; format: cell-based, Staphylococcus aureus; conditions: Newman parental; 6 hours in TSB with 10 mg/L Congo Red
Procedure: Newman or Newman ΔtarO were inoculated to approximately 10^9 CFU/mL in TSB containing 10 mg/L Congo Red, and cultured at 37° C. for 6 h. Cells were collected at 0 or 6 h, fixed in Karnovsky's fixative (2% paraformaldehyde and 2.5% glutaraldehyde in cacodylate buffer [pH 7.4]), and processed for TEM using standard procedures described in Suzuki et al. (Invest. Ophthalmol. Vis. Sci. 52:3187-3192, 2011). For TEM, 60- to […] sections were obtained, viewed, and photographed with a transmission electron microscope (model 410; Philips Electronics NV, Eindhoven, The Netherlands).

S. aureus strain Newman = assay: Checkerboard assay, Congo Red and tunicamycin; format: cell-based, Staphylococcus aureus
Procedure: A standard checkerboard assay, using Congo Red and tunicamycin, was performed as described in Lorian (Antibiotics in Laboratory Medicine, 4th Edition, Baltimore, Md., Williams & Wilkins Co., 1996). To assess the kinetics of inhibition, cultures of strain Newman were started in TSB containing either Congo Red or tunicamycin. Briefly, an overnight culture of S. aureus strain Newman was diluted to approximately 10^5 CFU/mL in 10 mL of TSB containing 10 mg/L Congo Red or 1 mg/L tunicamycin, and cultured at 37° C. statically. Following 2 h incubation, tunicamycin (1 mg/L final concentration) was added to the Congo Red culture, or Congo Red (10 mg/L final concentration) was added to the tunicamycin culture. Following 6 h of additional incubation bacteria were enumerated by plating serial ten-fold dilutions.

C. elegans = assay: Toxicity against uninfected C. elegans; format: in vivo, Caenorhabditis elegans; conditions: single agent; tunicamycin 6.25-100.0 mg/L, Congo Red 3.1-50.0 mg/L; uninfected worms
Procedure: (§3) C. elegans glp-4(bn2); sek-1(km4) was used for all experiments and infected essentially as described in Breger et al. (PLoS Pathog. 3:e18, 2007), with minor modifications. This mutant line was selected for liquid assay experiments because they are unable to produce progeny at 25° C. (Miyata et al., Genetics 178:903-918, 2008), and the deleted sek-1 gene encodes a conserved mitogen-activated protein (MAP) kinase involved in innate immunity (Kim et al., Science 297:623-626, 2002), expediting the rate of killing. Worms were cultured and maintained on nematode growth medium (NGM) agar containing lawns of E. coli HB101 (Breger et al., PLoS Pathog. 3:e18, 2007).
(§4) To assess the sensitivity of C. elegans to infection by S. aureus RN6390 or an isogenic ΔtarO strain, the bacteria were cultured in TSB at 37° C. Overnight cultures were plated onto 10 cm TSB agar plates for 18 hours at 37° C., and cooled at room temperature for 30 minutes. Washed young adult worms were infected on lawns of S. aureus strains for 3 hours at 25° C. After washing three times with M9, worms were transferred into the wells of a six well microtiter plates (40 worms per well). Each well contained 2 mL of assay medium (20% BHI: 80% M9 v/v) containing various concentrations of Congo Red, tunicamycin, or a combination of Congo Red and tunicamycin. […]

[5] = tested on: C. elegans infected with S. aureus RN6390; assay: C. elegans infection model, S. aureus RN6390; format: in vivo, Caenorhabditis elegans; conditions: Congo Red alone 3.1-25.0 mg/L
Procedure: as §3, §4

[6] = tested on: C. elegans infected with S. aureus RN6390 ΔtarO; assay: C. elegans infection model, S. aureus RN6390 ΔtarO; format: in vivo, Caenorhabditis elegans; conditions: Congo Red alone 3.1-25.0 mg/L
Procedure: as §3, §4

[7] = BHI agar, dye 0.08% w/v, 37° C., 24 hours

For CCN(CC)c1ccc2c(-c3ccc(S(=O)(=O)[O-])cc3S(=O)(=O)[O-])c3ccc(=[N+](CC)CC)cc-3oc2c1.[Na+] [Acid Red], the “selective suppression of growth of tarO mutant but not parental strain on dye agar” value (S. aureus tarO mutant; [7]) was “conferred susceptibility”.
In the case of O=S(=O)(O)c1cc(Nc2nc(Nc3ccccc3)nc(N(CCO)CCO)n2)ccc1/C=C/c1ccc(Nc2nc(Nc3ccccc3)nc(N(CCO)CCO)n2)cc1S(=O)(=O)O [Calcofluor White], the “selective suppression of growth of tarO mutant but not parental strain on dye agar” value (S. aureus tarO mutant; BHI agar, dye 0.01% w/v, 37° C., 24 hours) is reported as “conferred susceptibility”.
In the case of Nc1c(/N=N/c2ccc(-c3ccc(/N=N/c4cc(S(=O)(=O)O)c5ccccc5c4N)cc3)cc2)cc(S(=O)(=O)O)c2ccccc12 [Congo Red], the MIC (S. aureus Newman [1]; Staphylococcus aureus, NEWMAN) is reported as over 1020 µg/mL, the MIC (S. aureus Newman [1]; strain Newman, single agent) is reported as over 1024 µg/mL and the MIC (S. aureus RN4220; Staphylococcus aureus, RN4220) is reported as over 1020 µg/mL. The MIC (S. aureus RN4220; strain RN4220) was over 1024 µg/mL, the MIC ([2]; Staphylococcus aureus) was over 1020 µg/mL and the MIC ([2]; strain RN4220ΔltaS-ltaS (ltaS complemented on multicopy plasmid)) was over 1024 µg/mL. The MIC (S. aureus RN4220ΔltaS; Staphylococcus aureus, 20 h) was over 1020 µg/mL, the MIC (S. aureus RN4220ΔltaS; strain RN4220ΔltaS, cultured at 30° C. for 20 h) was over 1024 µg/mL and the MIC (S. aureus RN4220ΔtarK; Staphylococcus aureus) was over 1020 µg/mL. The MIC (S. aureus RN4220ΔtarK; strain RN4220ΔtarK) was over 1024 µg/mL, the MIC (S. aureus NewmanΔtarO) was 1 µg/mL (≈ 1.53 µM) and the MIC (S. aureus RN4220ΔtarA) was 0.5 µg/mL (≈ 0.766 µM). For the same molecule, the MIC (S. aureus RN4220ΔtarO) was 2 µg/mL (≈ 3.06 µM), the MIC (S. aureus RN6390) was over 1020 µg/mL and the MIC (S. aureus RN6390ΔtarO) was 4 µg/mL (≈ 6.13 µM). The MIC ([3]; Staphylococcus aureus) was 0.5 to 4 µg/mL (≈ 0.766 to 6.13 µM), the “MIC fold lower than resistant strains” value ([3]; tarO and tarA mutants vs parental, tarK, ltaS strains) was 250-2000 fold and the “growth on agar with Congo Red” value (S. aureus tarO mutant; BHI agar, 37° C., 24 hours) was “highly susceptible; also recorded: neither tarA nor tarO strains grew”. For the same molecule, the “growth on agar with Congo Red” value (S. aureus tarO mutant; LB agar, 30° C. and 37° C.) was “inhibited”, the “growth on agar with Congo Red” value (S. aureus tarA mutant) was “neither tarA nor tarO strains grew” and the “growth on agar with Congo Red” value (S. aureus tarK mutant) was “not affected”. The “growth on agar with Congo Red” value (S. aureus ltaS mutant) was “no effect”, the “time after addition of Congo Red at which bacteria began to die” value (S. aureus Newman ΔtarO) was 3 h and the “cell morphology by TEM” value (S. aureus Newman [4]) was “not detectably affected”. For the same molecule, the “Congo Red MIC in presence of tunicamycin” value (S. aureus strain Newman; tunicamycin as low as 5 mg/L) was 1 µg/mL, the synergy with tunicamycin (S. aureus strain Newman; two-dimensional checkerboard, 20 hours, 37° C.) was “strong synergy” and the “toxicity for C. elegans” value (C. elegans) was “little toxicity”. For the same molecule, the “rescue of infected nematodes (survival)” value [5] was “little effect; also recorded: inability” and the “rescue of infected nematodes (survival)” value [6] was “rescue”.
For CCNc1ccc2ccccc2c1N=Nc1ccc(N=Nc2ccccc2)cc1 [Sudan Red 7B], the “selective suppression of growth of tarO mutant but not parental strain on dye agar” value (S. aureus tarO mutant; [7]) was “conferred susceptibility”.
Nc1ccc(S(N)(=O)=O)cc1 [sulfanilamide] was tested, and the MIC (S. aureus Newman [1]; Staphylococcus aureus, strain Newman, single agent, read-out: MIC) was over 128 µg/mL and the MIC (S. aureus NewmanΔtarO) was over 128 µg/mL.
In the case of Direct Red, the “selective suppression of growth of tarO mutant but not parental strain on dye agar” value (S. aureus tarO mutant; [7]) is reported as “conferred susceptibility”.
With Mordant black the “selective suppression of growth of tarO mutant but not parental strain on dye agar” value (S. aureus tarO mutant; [7]) was “conferred susceptibility”.
In the case of tunicamycin, the “toxicity for C. elegans” value (C. elegans) is reported as “dose dependent toxicity”.
